Data as given in patent US20230323414A1, “ENZYME DEHYDROXYLATING HYDROXYL GROUP AT 9-POSITION OF UROLITHIN COMPOUND” (DAICEL CORPORATION, priority 2020, published 2023).

System: enzyme dehydroxylating the hydroxyl group at the 9-position of urolithins
Assay: Effect of cofactor on enzyme activity (DEAE fraction)
Type: biochemical, Clostridium bolteae JCM 12243 strain
Conditions: for Effect of cofactor on enzyme activity: cofactor individually added; for Relative activity: control without cofactor = 100%, DEAE fraction
Description: A 100 mM Gly/NaOH buffer (pH 9.5) containing 0.05 mg/mL of urolithin C, 5 mM of NADH, and 1 μM of DTT was mixed with a reaction solution for measuring the enzyme activity of each fraction corresponding to 40 mL of the medium to give a total volume of 500 μL, and the mixture was placed in a 1.5-mL tube. A gas phase in an anaerobic chamber was used as a gas phase (Vinyl Anaerobic Chamber available from Coy Labs), and the mixture was reacted at 45° C. for 13 to 18 hours. After completion of the reaction, 200 μL of N,N-dimethylacetamide containing 10% -formic acid was added and mixed. Then, the mixture was centrifuged (10,000 rpm. 4° C., 3 minutes), and the resulting supernatant was analyzed by HPLC.
Solutions were prepared to contain a cofactor in a concentration as shown in Table 2 in the reaction solution for measuring the enzyme activity described in Experimental Example 5, and urolithin A produced after the reaction was quantified. The DEAE fraction was used as the enzyme.
In addition, FAD refers to flavin adenine dinucleotide.

| Effect of cofactor on enzyme activity | Relative activity (one cofactor at 10 mM) [%] | Relative activity (one cofactor at 0.2 mM) [%] | Structure (SMILES) |
| --- | --- | --- | --- |
| Increase in activity | 186 | – | NC(=O)C1=CN([C@@H]2O[C@H](COP(=O)(O)OP(=O)(O)OC[C@H]3O[C@@H](n4cnc5c(N)ncnc54)[C@H](O)[C@@H]3O)[C@@H](O)[C@H]2O)C=CC1 [No. 2, reduced nicotinamide adenine dinucleotide] |
| – | – | 96 | Cc1cc2nc3c(=O)[nH]c(=O)nc-3n(C[C@H](O)[C@H](O)[C@H](O)COP(=O)(O)O)c2cc1C [No. 5, flavin mononucleotide] |
| – | – | 95 | Cc1cc2nc3c(=O)[nH]c(=O)nc-3n(C[C@H](O)[C@H](O)[C@H](O)COP(=O)(O)OP(=O)(O)OC[C@H]3O[C@@H](n4cnc5c(N)ncnc54)[C@H](O)[C@@H]3O)c2cc1C [No. 4, flavin adenine dinucleotide] |
| Increase in activity | 161 | – | NC(=O)C1=CN([C@@H]2O[C@H](COP(=O)(O)OP(=O)(O)OC[C@H]3O[C@@H](n4cnc5c(N)ncnc54)[C@H](OP(=O)(O)O)[C@@H]3O)[C@@H](O)[C@H]2O)C=CC1 [No. 3, reduced nicotinamide adenine dinucleotide phosphate] |
